From US9000159B2 (Glenmark Pharmaceuticals, S.A., priority 2009, dated 2015)

Molecular target: T1, Human TRPA1 (Homo sapiens, UniProt O75762)
T1 construct: expressed in transfected cells; host or cells: CHO cells
Test: 45Calcium uptake assay: inhibition of AITC induced cellular uptake of radioactive calcium
Format: cell-based
Details: AITC (30 μM) induced 45Ca uptake, Human TRPA1 expressing CHO cells; for inhibition at 1 µM: 1.0 μM test compound, read-out: Percentage inhibition at 1.0 μM; for inhibition at 10 µM: 10.0 μM test compound, read-out: Percentage inhibition at 10.0 μM
Outline: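 CHO cells stably expressing human TRPA1 (~50,000/well) preincubated 10 min with compound (0.5% DMSO, medium with 0.1% BSA, 1.8 mM CaCl2), then 30 μM AITC plus 5 μCi/ml 45Ca2+ for 3 min. Lysate radioactivity counted by scintillation; IC50 by nonlinear regression of % maximal uptake.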

T1 sequence (O75762 whole entry): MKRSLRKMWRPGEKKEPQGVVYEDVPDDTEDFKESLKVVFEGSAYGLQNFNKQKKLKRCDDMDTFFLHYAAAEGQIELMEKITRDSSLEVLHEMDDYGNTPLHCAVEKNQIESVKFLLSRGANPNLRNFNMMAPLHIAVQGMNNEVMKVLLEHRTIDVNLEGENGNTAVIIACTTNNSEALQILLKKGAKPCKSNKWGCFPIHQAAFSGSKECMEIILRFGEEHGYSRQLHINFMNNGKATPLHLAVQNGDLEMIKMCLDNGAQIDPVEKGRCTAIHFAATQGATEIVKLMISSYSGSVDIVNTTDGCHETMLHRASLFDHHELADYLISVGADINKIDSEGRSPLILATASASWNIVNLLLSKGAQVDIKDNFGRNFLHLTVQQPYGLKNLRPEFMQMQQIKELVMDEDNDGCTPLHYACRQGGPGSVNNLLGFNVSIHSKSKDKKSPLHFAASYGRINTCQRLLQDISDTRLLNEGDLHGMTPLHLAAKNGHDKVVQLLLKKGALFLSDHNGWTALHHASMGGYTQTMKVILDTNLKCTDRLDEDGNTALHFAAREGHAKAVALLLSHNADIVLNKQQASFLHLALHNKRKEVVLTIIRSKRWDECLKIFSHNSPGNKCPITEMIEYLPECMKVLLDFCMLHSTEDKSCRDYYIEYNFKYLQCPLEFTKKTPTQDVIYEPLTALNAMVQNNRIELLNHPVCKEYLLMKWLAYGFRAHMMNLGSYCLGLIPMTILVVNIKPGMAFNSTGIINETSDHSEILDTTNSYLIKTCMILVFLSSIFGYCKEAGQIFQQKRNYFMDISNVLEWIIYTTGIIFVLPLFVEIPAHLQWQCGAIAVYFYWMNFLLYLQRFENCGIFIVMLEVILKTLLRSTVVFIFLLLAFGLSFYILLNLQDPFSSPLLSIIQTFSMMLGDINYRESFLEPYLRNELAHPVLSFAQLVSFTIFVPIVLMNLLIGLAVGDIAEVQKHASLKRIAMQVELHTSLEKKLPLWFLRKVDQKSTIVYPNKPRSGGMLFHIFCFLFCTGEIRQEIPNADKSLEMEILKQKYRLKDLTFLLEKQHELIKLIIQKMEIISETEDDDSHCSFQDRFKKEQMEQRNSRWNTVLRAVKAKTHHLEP

Structure (SMILES) | inhibition at 1 µM [%] | inhibition at 10 µM [%] | IC50 (read-out: Human IC50 value (range)) [µM]
Cn1c(=O)c2c(cnn2CC(=O)Nc2nc(-c3cc(F)c(OC(F)F)c(F)c3)cs2)n(C)c1=O [Example 72, N-{4-[4-(Difluoromethoxy)-3,5-difluorophenyl]-1,3-thiazol-2-yl}-2-(4,6-dimethyl-5,7-dioxo-4,5,6,7-tetrahydro-1H-pyrazolo[4,3-d]pyrimidin-1-yl)acetamide] | 85.9 | 97.7 | > 0.1
Cn1c(=O)c2c(CC(=O)Nc3nc(-c4cc(F)c(OCC(C)(C)C)c(F)c4)cs3)cn(C)c2n(C)c1=O [Example 42, N-[4-(3,5-Difluoro-4-(2,2-dimethylpropoxy)phenyl)-1,3-thiazol-2-yl]-2-(1,3,7-trimethyl-2,4-dioxo-2,3,4,7-tetrahydro-1H-pyrrolo[2,3-d]pyrimidin-5-yl)acetamide] | 41.1 | 63.1 | –
